Reference: patent publication US9529131B2, “Polarizing plate” (NITTO DENKO CORPORATION, priority 2014, dated 2016)

experiment: log P value (octanol/water partition coefficient); conditions: not given

Row | Compound | logP
1 | C=CC(=O)OCCCCCCCCCOC(=O)C=C [LIGHT ACRYLATE 1,9ND-A, 1,9-nonanediol diacrylate] | 3.68

same assay, conditions: shake flask method JIS Z 7260 or ChemDraw Ultra calculation, not stated which

Row | Compound | log P
2 | CSc1ccc(C(=O)C(C)(C)N2CCOCC2)cc1 [IRGACURE 907, 2-methyl-1-(4-methylthiophenyl)-2-morpholinopropan-1-one] | 2.09
3 | C=CC(=O)OCCCCCCCCCCOC(=O)C=C [1,10-decanediol diacrylate] | 4.10
4 | C=CC(=O)OCC(C)OCC(C)OCC(C)OC(=O)C=C (stereo not drawn) [TPGDA, tripropylene glycol diacrylate] | 1.68
5 | bisphenol A-propylene oxide (2 mole) adduct di(meth)acrylate | 6.10
6 | C=CC(=O)OCCN=C=O [Karenz AOI] | 1.6
